Reference: publication PMC11881437 (Molecular Medicine, 2025)
Read-outs that look alike come from different tables or passages of the source.

Assays:
HCT116 cells = experiment: MTT cell viability assay; assay type: cell-based, human; conditions: for IC50: Homo sapiens
Description: HCT116 cells (1 × 10^3 cells/well) were seeded in 96-well plates and cell viability was determined using MTT (Sigma-Aldrich, USA). […] MTT (0.5 mg/ml) was added to the cells after 48 h of treatment and incubated for 3 h in dark at 37 °C. The generated formazan complexes were dissolved in DMSO and the absorbance were measured at 550 nm using a spectrophotometer (Infinite® 200 PRO, TECAN, Switzerland) (Bhowmik et al. [2013]).

[1] = system: CSC enriched spheres (CES) derived from HCT116 cells; experiment: Tumorosphere (CES) diameter and number; assay type: cell-based, human; conditions: 24 h, 5FU vs control, Orientin and combination vs 5FU
Description: (§1) HCT116 CRC cells were grown in ultra-low attachment plate in 3dGRO™ Spheroid Medium (Sigma-Aldrich, USA) for 7 days. Spheroids enriched with CSCs were considered as CSC enriched spheres (CESs) or commonly referred as tumorospheres. After 7 days, tumorospheres were subjected to different treatments for 24 h, as per experimental protocol. Media of tumorospheres of all the treatment groups were collected, centrifuged to remove the cell debris and suspended spheres, supernatants were collected and vacuum concentrated. These supernatants were referred as conditioned medium (CM) and were stored at − 20 °C until use.

[2] = system: CD44+/CD133+ CSC population in CES derived from HCT116 cells; experiment: Flow cytometry of CD44+/CD133+ cells in tumorospheres; assay type: cell-based, human; conditions: 24 h, 26 µM Orientin, 13 µM 5FU, 14 µM Orientin + 7 µM 5FU, untreated 18.4%
Description: as §1
(§2) Percentages of CD44^+/CD133^+ cell population were determined within tumorospheres and HIF1α positive cells were determined within the CD44^+/CD133^+ cell population using a flow cytometer (BD LSRFortessa™ X-20) and analyzed by BD FACSDiva™ software.

[3] = system: chick chorioallantoic membrane; experiment: Chick chorioallantoic membrane (CAM) assay with conditioned medium of CES; conditions: CM of treated CES, day 4 vs day 1
Description: HCT116 CRC cells were grown in ultra-low attachment plate in 3dGRO™ Spheroid Medium (Sigma-Aldrich, USA) for 7 days. Spheroids enriched with CSCs were considered as CSC enriched spheres (CESs) or commonly referred as tumorospheres. After 7 days, tumorospheres were subjected to different treatments for 24 h, as per experimental protocol. Media of tumorospheres of all the treatment groups were collected, centrifuged to remove the cell debris and suspended spheres, supernatants were collected and vacuum concentrated. These supernatants were referred as conditioned medium (CM) and were stored at − 20 °C until use. To investigate the role of CSC on angiogenesis, a modified chick chorioallantoic membrane assay was carried out. Briefly, 100 µl CM of treated and untreated spheres were mixed with 1.5 mg/ml type I collagen (Gibco, USA). 10 µl of the mixture were loaded on the piece of 13 mm Thermanox discs (Nunc, Denmark) and permitted to get polymerize. The disc was then applied to the chorioallantoic membrane of a 4 days-old embryo. After 72 h of incubation, the area around the loaded disc was photographed with a digital camera, and the numbers of newly formed vessels were counted by two observers in a double-blind manner (Min et al. [2004]).

VEGFA = experiment: ELISA of VEGFA secreted into conditioned medium of CES; assay type: cell-based, human
Description: as §1, with “3dGROTM” for “3dGRO™”, “-” for “−”, “use. Concentration of the secreted VEGFA was measured using the ELISA kit according to the manufacturer's instruction ([…] BioSystems, India) in CM of CESs as well as in the media of transfected and non-transfected HCT116.” for “use.”

[4] = Hepatic oxidative parameters and liver/kidney histopathology, 10 days treatment; assay type: in vivo, BALB/c mice; conditions: 5 mg/kg b.w i.v.; for kidney histopathology / liver histopathology: H&E
Description: (§3) To determine the toxicity of only Orientin treatment in various doses, the mice were divided into five groups. Each group contained six animals (n = 6). Each animal of the vehicle control group (VC) was left untreated, while, mice of other four groups were administered Orientin intravenously with 1 mg/kg b.w, 3 mg/kg b.w, 5 mg/kg b.w and 10 mg/kg b.w dosage respectively for 28 days. […] All the treatments were continued for 10 days. On day 11 all the mice were sacrificed and different parameters were studied.
Values of all the parameters were calculated with respect to the amount of total protein present in liver homogenates.
Various organs and solid tumors collected after sacrificing the mice were embedded into paraffin after 10% neutral buffered formalin fixation. 4 μm sections were prepared and used for histopathological study.

HIF1α, VEGFA, NF-ĸB = experiment: Western blot of HIF1α, VEGFA and NF-ĸB in CES; assay type: cell-based, human; conditions: 24 h
Description: Cells were incubated with Brefeldin A (10 µg/ml) for 4 h before harvesting to determine VEGFA expression. Briefly, cells were lysed with RIPA buffer [50 mmol/L Tris–HCl (pH 7.8), 150 mmol/L NaCl, 1% Triton X-100, 0.1% SDS, 0.5% sodium deoxycholate, and 1 mmol/L EDTA] containing complete protease inhibitor cocktail. Equal amount of protein was electrophoresed on SDS-PAGE and electro transferred onto polyvinylidene difluoride (PVDF) membranes using Bio-Rad mini gel apparatus. The membranes were probed with OCT4 (Thermo Fisher Scientific, USA), SOX2 (AbCam, USA), NANOG (Thermo Fisher Scientific, USA), HIF1α (Thermo Fisher Scientific, USA) and VEGFA (Thermo Fisher Scientific, USA) and NF-ĸB (Santa Cruz Biotechnology, USA) antibodies. β-Actin (Santa Cruz Biotechnology, USA) and α-TUBULIN (Santa Cruz Biotechnology, USA) antibodies were used as loading control. Then, the blots were probed with HRP tagged secondary antibodies. Signals were detected with the ECL system (Promega, USA) and images were captured in iBright™ CL1500 Imaging System.

HIF1α, VEGFA = experiment: Western blot and immunocytochemistry in HIF1α transfected HCT116 cells; assay type: cell-based, human
Description: (§4) HCT116 cells were transiently transfected with HA-HIF1α-pcDNA3 plasmid (Addgene, USA, Plasmid #18949) by using lipofectamineTM 2000 (Thermo Fisher Scientific, USA) according to the manufacturer’s instructions. After 24 h of transfection, those cells were subjected to various experiments.

[5] = system: CD44+/CD133+ cell population in HIF1α transfected HCT116 derived tumorospheres; experiment: Flow cytometry of CD44+/CD133+ cells in CES from HIF1α transfected HCT116 cells; assay type: cell-based, human; conditions: transfected control 28.9%
Description: as §4, §2

[6] = Toxicity of Orientin alone in mice, 28 days; assay type: in vivo, BALB/c mice
Description: as §3
Glutathione-S-transferase (GST), superoxide dismutase (SOD), Catalase (CAT), Glutathione peroxidase (GPx) and reduced glutathione (GSH) activity in hepatic tissue were assessed as described previously (Hajra et al. [2018b]). Values of all the parameters were calculated with respect to the amount of total protein present in liver homogenates.
Various organs and solid tumors collected after sacrificing the mice were embedded into paraffin after 10% neutral buffered formalin fixation. 4 μm sections were prepared and used for histopathological study. Standard Hematoxylin and Eosin (H&E) staining protocol was used and sections were visualized under light microscope (DM 1000, Leica, Germany) (Hajra et al. [2018a]).

[7] = design: method as in Tan et al. [2013]; Chagas et al. [2020]; Zhang et al. [2007]; conditions: ref Tan et al. [2013]; Chagas et al. [2020]; Zhang et al. [2007]; cited from earlier work

Structure (SMILES)	reduction of IC50 in combination compared to individual treatment (HCT116 cells; HCT116, MTT, 48 h)	diameter of spheres [1]	number of spheres [1]	CD44+/CD133+ cell population [2]	number of blood vessels formed in CAM [3]	kidney histopathology [4]	liver histopathology [4]	further results
O=c1[nH]cc(F)c(=O)[nH]1 [5FU, 5-Fluorouracil, reference compound]	approximately 50%	significantly increased	significantly increased	22.3%	increase in number of blood vessel formation	distorted Bowman’s capsule, glomeruli, blood and cellular infiltration	distorted central vein, necrosis, cellular and blood infiltration	IC50 (HCT116 cells; HCT-116, HCT116, MTT, 48 h, used separately, read-out: IC50): 13 µM; VEGFA secreted into CM of CES (VEGFA): stimulated; hepatic LPO, ROS and NO [4]: induce; hepatic GSH and activity of GST, GPx, SOD and CAT ([4]; 5FU vs vehicle control, combination vs 5FU): reduced
O=c1cc(-c2ccc(O)c(O)c2)oc2c([C@@H]3O[C@H](CO)[C@@H](O)[C@H](O)[C@H]3O)c(O)cc(O)c12 [Orientin]	approximately 50%	significant decreases	significant decreases	13.5%	Non-significant change	did not induce any toxicity	remained normal	IC50 (HCT116 cells; HCT-116, 48 h): 26 µM; NF-ĸB expression (HIF1α, VEGFA, NF-ĸB): downregulated; HIF1α and VEGFA expression by immunocytochemistry (HIF1α, VEGFA): reduced; CD44+/CD133+ cell population [5]: 16.4%; hepatic GSH and activity of GST, GPx, SOD and CAT ([6]; 5 mg/kg b.w Orientin i.v., 28 days): increase; hepatic LPO level ([6]; 5 mg/kg b.w Orientin i.v., 28 days, vs control): significantly decreased; histopathology of liver, heart, lung and kidney ([6]; 5 mg/kg b.w Orientin, vs control): no histopathological changes; excretion [7]: excreted primarily through urine; metabolism [7]: hepatic metabolism via CYP450 enzymes; tissue distribution [7]: widely distributed in different tissues
